From ChEMBL document CHEMBL1208774, “3-D-QSAR and docking studies on the neuronal choline transporter” (Bioorg Med Chem Lett, 2010) come the findings set out here.

The target of assay [1] is T1, High affinity choline transporter 1 (Mus musculus, UniProt Q8BGY9).
T1 sequence (Q8BGY9 whole entry): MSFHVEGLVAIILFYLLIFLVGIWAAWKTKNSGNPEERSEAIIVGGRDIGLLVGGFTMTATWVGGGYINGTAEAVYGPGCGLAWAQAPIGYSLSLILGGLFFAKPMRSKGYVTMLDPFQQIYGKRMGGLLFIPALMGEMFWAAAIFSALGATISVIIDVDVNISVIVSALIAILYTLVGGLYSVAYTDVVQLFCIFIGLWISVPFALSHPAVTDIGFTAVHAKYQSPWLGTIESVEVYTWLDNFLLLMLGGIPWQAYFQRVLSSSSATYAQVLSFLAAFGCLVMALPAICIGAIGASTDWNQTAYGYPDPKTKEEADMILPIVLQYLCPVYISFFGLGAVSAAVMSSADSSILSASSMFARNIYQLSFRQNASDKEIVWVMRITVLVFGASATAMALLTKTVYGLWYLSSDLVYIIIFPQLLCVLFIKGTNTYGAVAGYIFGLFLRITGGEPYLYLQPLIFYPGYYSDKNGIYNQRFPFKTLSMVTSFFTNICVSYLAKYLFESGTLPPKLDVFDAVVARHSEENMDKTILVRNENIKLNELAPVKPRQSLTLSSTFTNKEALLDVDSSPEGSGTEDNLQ
In words: Inhibition of [3H]choline uptake at choline transporter 1 in mouse brain synaptosome. It counts as tissue-based.

Assay [2] concerns the target T2, High affinity choline transporter 1 (Rattus norvegicus, UniProt Q9JMD7).
T2 sequence (Q9JMD7 whole entry): T1 sequence (Q8BGY9 whole entry) with S2P, P35A, Y307F, L386F, S467P, V513I, A519S
Kind of assay: Binding affinity to rat choline transporter 1.

Where a chain is given by its changes, count along the chain named. pKi: −log10 of the molar value.

As a reminder, the pKi is the Ki on a negative log10 scale, so that one unit is a factor of ten. High values mean a small Ki, low ones a large Ki. With `COc1cc(C#CCC[N+]23CCC(CC2)C3)cc(OC)c1OC`, the negative logarithm of the Ki (pKi) in assay [1] is 7.30.
The same measure, in the same setting: the result for `CNC` [DIMETHYLAMINE] reads 2.03.
`C[N+]1(C)CCO[C@@](O)(c2ccc(-c3ccc([C@@]4(O)C[N+](C)(C)CCO4)cc3)cc2)C1` [HEMICHOLINIUM DIBROMIDE] gave a pKi in assay [2] of 8.00.
Molecule `CC1C(O)C2CC[N+]1(C)CC2` (configuration not stated) showed a negative logarithm of the Ki (pKi) in assay [1] of 3.68.
For the molecule `C[N+](C)(C)c1ccccc1`, the pKi in assay [1] is 4.12.
Consider `C[N+](C)(C)C` [TETRAMETHYLAMMONIUM], for which the negative logarithm of the Ki (pKi) in assay [1] is 4.52.
Same read-out and setting: under `COC(=O)CC[N+](C)(C)C` stands 3.57; under `CC(=O)OCCC[N+](C)(C)C`, 3.72; under `OCC[N+]12CCC(CC1)CC2`, 6.19.
The same measure, in the same setting: under `C[N+]12CCC(CC1)C(=O)C2` stands 6.28; under `CNCCO`, 2.42; under `Nc1ccncc1N` [AMIFAMPRIDINE], 3.09.
Still for that read-out and setting: the result for `COc1cc(C#CCC[N+]23CCC(CC2)CC3)cc(OC)c1OC` reads 7.05; that for `CCCCCCCCCCCCCCCC[n+]1ccccc1`, 4.49.
The molecule `CCCC[N+](CCCC)(CCCC)CCCC` [TETRABUTYLAMMONIUM] gave a negative-log Ki (pKi) in assay [1] of 2.98.
On the same count and under the same terms, under `CCCCC[N+]1(CCC#Cc2cc(OC)c(OC)c(OC)c2)CCCCC1` stands 7.70.
The molecule `C1CN2CCC1CC2` gave a negative-log Ki (pKi) in assay [1] of 4.40.
Molecule `CN(C)CCCO` had a negative-log Ki (pKi) in assay [1] of 3.54.
Same read-out and setting: the result for `Cc1cc(C)nc(C)c1` reads 3.97; that for `C[N+](C)(C)CCO.[Cl-]` [CHOLINE CHLORIDE], 6.17; that for `Nc1ccncc1` [DALFAMPRIDINE], 3.32.
In assay [1], `CC[N+]1(CCC#Cc2cc(OC)c(OC)c(OC)c2)CCCCC1` had a pKi of 6.74. Compared with the last molecule, the pKi is 3.42 log units higher.
The same measure, in the same setting: the result for `C[N+]12CCC(CC1)CC2` reads 5.33.
The same measure, in the same setting: under `CC[N+](CC)(CC)CCC#Cc1cc(OC)c(OC)c(OC)c1` stands 6.15; under `CN(C)C` [TRIMETHYLAMMONIUM], 3.47; under `C[N+](C)(C)CCCCO`, 3.51.
The molecule `CCCCCCCC[N+]1(CCC#Cc2cc(OC)c(OC)c(OC)c2)CCCCC1` showed a pKi in assay [1] of 6.64. This pKi lies 3.13 log units higher than the previous one.
Regarding `CN1CCC[C@H]1c1cccnc1` [NICOTINE], in assay [1], the negative-log Ki (pKi) is 3.28.
The same measure, in the same setting: the result for `CC[N+]1(CCC#Cc2cc(OC)c(OC)c(OC)c2)CCCC1` reads 6.70; that for `CC[N+](CC)(CC)CC` [TETRYLAMMONIUM], 3.58; that for `C[N+]12CCC(O)(CC1)CC2`, 4.14.
Same read-out and setting: under `CN` [METHYLAMINE] stands 1.46; under `CN(C)CCO` [DIMETHYLAMINOETHANOL], 4.25; under `CCOC(=O)CC[N+](C)(C)C`, 3.47.
In turn, `COc1cc(C#CCC[N+](C)(C)C)cc(OC)c1OC` gave a negative logarithm of the Ki (pKi) in assay [1] of 5.70. This pKi is 2.23 log units higher than that of the molecule before.
Same read-out and setting: under `C[N+](C)(C)CCCO` stands 5.66.
The same measure, in the same setting: the result for `C[n+]1cccc(C(N)=O)c1` reads 3.44.
